Reference: patent US10639253B2, “Compositions” (Symrise AG, priority 2014, dated 2020)

Key:
Assay in all cases: Antimicrobial activity in formulation: colony counts over 28 days, synergy by Kull equation
Settings in all cases: for Relative colony counts: relative to day 0; for Colony counts: counts <10 set to 10
S. aureus = type: cell-based, Staphylococcus aureus
From the text: (§1) Synergistic antimicrobial activity of lactate esters and other flavor and fragrance ingredients against different microorganisms relevant for cosmetics were investigated.
(§2) To calculate the synergism between lactate esters and other flavor and fragrance ingredients, the Kull equation^1,2 was used ^1 Kull, F. C., Eismann, P. C., Sylvestrowicz, H. D., and R. L. Mayer (1961). Mixtures of Quaternary Ammonium Compounds and Long-chain Fatty Acids as Antifungal Agents. Applied Microbiology 9, 538-541.^2 Steinberg, D. C. (2000). Measuring Synergy. Cosmetics & Toiletries 115 (11), 59-62. SI=(Cmixture×PA)/CA+(Cmixture×PB)/CB where • SI is the Synergy Index according to Kull^1), 2) • CA is the cell count for substance A • CB is the cell count for substance B • Cmixture is the cell count for the mixture of substances A and B • PA is the proportion of the substance A in the mixture • PB is the proportion of the substance B in the mixture.
(§3) Colony counts of <10 were arbitrarily set to 10, in order to allow for synergy calculations with the above equation. The abbreviation “n.a.” means not applicable.

A. brasiliensis = type: cell-based, Aspergillus brasiliensis
From the text: Synergistic antimicrobial activity of lactate esters and other flavor and fragrance ingredients against different microorganisms relevant for cosmetics were investigated. To calculate the synergism between lactate esters and other flavor and fragrance ingredients, the Kull equation^1,2 was used ^1 Kull, […]., and R. L. Mayer (1961). Mixtures of Quaternary Ammonium Compounds and Long-chain Fatty Acids as Antifungal Agents. Applied Microbiology 9, 538-541.^2 Steinberg, D. C. (2000). Measuring Synergy. Cosmetics & Toiletries 115 (11), 59-62. SI=(Cmixture×PA)/CA+(Cmixture×PB)/CB where • SI is the Synergy Index according to Kull^1), 2) • CA is the cell count for substance A • CB is the cell count for substance B • Cmixture is the cell count for the mixture of substances A and B • PA is the proportion of the substance A in the mixture • PB is the proportion of the substance B in the mixture. […] The abbreviation “n.a.” means not applicable.

E. coli = type: cell-based, Escherichia coli
From the text: as §1, §2, §3

C. albicans = type: cell-based, Candida albicans
From the text: as §1, §2, §3

COc1ccc(C(=O)O)cc1 [AAc, p-anisic acid] showed a Relative colony counts (S. aureus; 0.5%, day 0) of 1.0000, a Relative colony counts (S. aureus; 0.5%, day 2) of 0.8095 and a Colony counts (S. aureus; 0.5%, day 7) of 130 cfu/g formulation. The Relative colony counts (S. aureus; 0.5%, day 7) was 0.0001, the Colony counts (S. aureus; 0.5%, day 14) was 10 cfu/g formulation and the Relative colony counts (S. aureus; 0.5%, day 14) was 0.0000. For the same compound, the Colony counts (S. aureus; 0.5%, day 28) was 10 cfu/g formulation, the Relative colony counts (S. aureus; 0.5%, day 28) was 0.0000 and the Relative colony counts (A. brasiliensis; 0.5%, day 0) was 1.0000. For the same compound, the Relative colony counts (A. brasiliensis; 0.5%, day 2) was 0.3514, the Colony counts (A. brasiliensis; 0.5%, day 7) was 200.000 cfu/g formulation and the Relative colony counts (A. brasiliensis; 0.5%, day 7) was 0.0541. It also gave a Relative colony counts (A. brasiliensis; 0.5%, day 14) of 0.3243, a Relative colony counts (A. brasiliensis; 0.5%, day 28) of 0.5676 and a Relative colony counts (E. coli; 0.5%, day 0) of 1.0000. For the same compound, the Colony counts (E. coli; 0.5%, day 2) was 140.000 cfu/g formulation, the Relative colony counts (E. coli; 0.5%, day 2) was 0.0609 and the Colony counts (E. coli; 0.5%, day 7) was 15.000 cfu/g formulation. The Relative colony counts (E. coli; 0.5%, day 7) was 0.0065, the Colony counts (E. coli; 0.5%, day 14) was 3.100 cfu/g formulation and the Relative colony counts (E. coli; 0.5%, day 14) was 0.0013. The Colony counts (E. coli; 0.5%, day 28) was 10 cfu/g formulation and the Relative colony counts (E. coli; 0.5%, day 28) was 0.0000.

COc1ccc(C=O)cc1 [AAld, p-anisic aldehyde] showed a Relative colony counts (A. brasiliensis; 0.5%, day 0) of 1.0000, a Colony counts (A. brasiliensis; 0.5%, day 2) of 560.000 cfu/g formulation and a Relative colony counts (A. brasiliensis; 0.5%, day 2) of 0.1931. For the same compound, the Colony counts (A. brasiliensis; 0.5%, day 7) was 140.000 cfu/g formulation, the Relative colony counts (A. brasiliensis; 0.5%, day 7) was 0.0483 and the Colony counts (A. brasiliensis; 0.5%, day 14) was 2.100 cfu/g formulation. For the same compound, the Relative colony counts (A. brasiliensis; 0.5%, day 14) was 0.0007, the Colony counts (A. brasiliensis; 0.5%, day 28) was 15 cfu/g formulation and the Relative colony counts (A. brasiliensis; 0.5%, day 28) was 0.0000.

Compound CCCCCOC(=O)C(C)O (stereo not shown) [AL, amyl lactate] has a Relative colony counts (S. aureus; 1%, day 0) of 1.0000, a Colony counts (S. aureus; 1%, day 2) of 21.000 cfu/g formulation and a Relative colony counts (S. aureus; 1%, day 2) of 0.0072. For the same compound, the Colony counts (S. aureus; 1%, day 7) was 15 cfu/g formulation, the Relative colony counts (S. aureus; 1%, day 7) was 0.0000 and the Colony counts (S. aureus; 1%, day 14) was 10 cfu/g formulation. The Relative colony counts (S. aureus; 1%, day 14) was 0.0000, the Colony counts (S. aureus; 1%, day 28) was 10 cfu/g formulation and the Relative colony counts (S. aureus; 1%, day 28) was 0.0000. For the same compound, the Relative colony counts (A. brasiliensis; 1%, day 0) was 1.0000, the Colony counts (A. brasiliensis; 1%, day 2) was 160.000 cfu/g formulation and the Relative colony counts (A. brasiliensis; 1%, day 2) was 0.0552. It also gave a Relative colony counts (A. brasiliensis; 1%, day 7) of 0.4828, a Colony counts (A. brasiliensis; 1%, day 14) of 320.000 cfu/g formulation and a Relative colony counts (A. brasiliensis; 1%, day 14) of 0.1103. For the same compound, the Colony counts (A. brasiliensis; 1%, day 28) was 660 cfu/g formulation and the Relative colony counts (A. brasiliensis; 1%, day 28) was 0.0002.

For CC(O)C(=O)OCc1ccccc1 (stereo not shown) [BL, benzyl lactate], the Relative colony counts (S. aureus; 1%, day 0) was 1.0000, the Colony counts (S. aureus; 1%, day 2) was 1.600 cfu/g formulation and the Relative colony counts (S. aureus; 1%, day 2) was 0.0006. For the same compound, the Colony counts (S. aureus; 1%, day 7) was 10 cfu/g formulation, the Relative colony counts (S. aureus; 1%, day 7) was 0.0000 and the Colony counts (S. aureus; 1%, day 14) was 10 cfu/g formulation. It also gave a Relative colony counts (S. aureus; 1%, day 14) of 0.0000, a Colony counts (S. aureus; 1%, day 28) of 10 cfu/g formulation and a Relative colony counts (S. aureus; 1%, day 28) of 0.0000. For the same compound, the Relative colony counts (A. brasiliensis; 1%, day 0) was 1.0000, the Colony counts (A. brasiliensis; 1%, day 2) was 270.000 cfu/g formulation and the Relative colony counts (A. brasiliensis; 1%, day 2) was 0.0931. For the same compound, the Colony counts (A. brasiliensis; 1%, day 7) was 4.500 cfu/g formulation, the Relative colony counts (A. brasiliensis; 1%, day 7) was 0.0016 and the Colony counts (A. brasiliensis; 1%, day 14) was 110 cfu/g formulation. For the same compound, the Relative colony counts (A. brasiliensis; 1%, day 14) was 0.0000, the Colony counts (A. brasiliensis; 1%, day 28) was 10 cfu/g formulation and the Relative colony counts (A. brasiliensis; 1%, day 28) was 0.0000.

For CCCCOC(=O)C(C)O (stereo not shown) [BuL, butyl lactate], the Relative colony counts (C. albicans; 1.25%, day 0) was 1.0000, the Colony counts (C. albicans; 1.25%, day 2) was 740.000 cfu/g formulation and the Relative colony counts (C. albicans; 1.25%, day 2) was 0.3083. The Colony counts (C. albicans; 1.25%, day 7) was 430 cfu/g formulation, the Relative colony counts (C. albicans; 1.25%, day 7) was 0.0002 and the Colony counts (C. albicans; 1.25%, day 14) was 10 cfu/g formulation. For the same compound, the Relative colony counts (C. albicans; 1.25%, day 14) was 0.0000, the Colony counts (C. albicans; 1.25%, day 28) was 10 cfu/g formulation and the Relative colony counts (C. albicans; 1.25%, day 28) was 0.0000. It also gave a Relative colony counts (A. brasiliensis; 1.25%, day 0) of 1.0000, a Colony counts (A. brasiliensis; 1.25%, day 2) of 730.000 cfu/g formulation and a Relative colony counts (A. brasiliensis; 1.25%, day 2) of 0.2517. The Relative colony counts (A. brasiliensis; 1.25%, day 7) was 0.5517, the Relative colony counts (A. brasiliensis; 1.25%, day 14) was 0.3793 and the Colony counts (A. brasiliensis; 1.25%, day 28) was 150.000 cfu/g formulation. The Relative colony counts (A. brasiliensis; 1.25%, day 28) was 0.0517, the Relative colony counts (E. coli; 1.25%, day 0) was 1.0000 and the Colony counts (E. coli; 1.25%, day 2) was 13.000 cfu/g formulation. For the same compound, the Relative colony counts (E. coli; 1.25%, day 2) was 0.0041, the Colony counts (E. coli; 1.25%, day 7) was 10 cfu/g formulation and the Relative colony counts (E. coli; 1.25%, day 7) was 0.0000. The Colony counts (E. coli; 1.25%, day 14) was 10 cfu/g formulation, the Relative colony counts (E. coli; 1.25%, day 14) was 0.0000 and the Colony counts (E. coli; 1.25%, day 28) was 10 cfu/g formulation. The Relative colony counts (E. coli; 1.25%, day 28) was 0.0000.

With OCCCc1ccccc1 [PP, 3-phenylpropanol] the Relative colony counts (C. albicans; 0.5%, day 0) was 1.0000, the Relative colony counts (C. albicans; 0.5%, day 2) was 0.4583 and the Colony counts (C. albicans; 0.5%, day 7) was 930.000 cfu/g formulation. For the same compound, the Relative colony counts (C. albicans; 0.5%, day 7) was 0.3875, the Colony counts (C. albicans; 0.5%, day 14) was 31.000 cfu/g formulation and the Relative colony counts (C. albicans; 0.5%, day 14) was 0.0129. The Colony counts (C. albicans; 0.5%, day 28) was 10 cfu/g formulation, the Relative colony counts (C. albicans; 0.5%, day 28) was 0.0000 and the Relative colony counts (S. aureus; 0.5%, day 0) was 1.0000. It also gave a Colony counts (S. aureus; 0.5%, day 2) of 23.000 cfu/g formulation, a Relative colony counts (S. aureus; 0.5%, day 2) of 0.0079 and a Colony counts (S. aureus; 0.5%, day 7) of 80 cfu/g formulation. For the same compound, the Relative colony counts (S. aureus; 0.5%, day 7) was 0.0000, the Colony counts (S. aureus; 0.5%, day 14) was 10 cfu/g formulation and the Relative colony counts (S. aureus; 0.5%, day 14) was 0.0000. The Colony counts (S. aureus; 0.5%, day 28) was 10 cfu/g formulation and the Relative colony counts (S. aureus; 0.5%, day 28) was 0.0000.
